Key:
Format in all cases: biochemical
rhGBA = target: T1, rhGBA (Homo sapiens, UniProt P04062); assay: rhGBA titration with constant ABP 6 and ABP 9 (gel-based labelling); details: ABP 150 nM, rhGBA 500–0.01 nM, 37 °C, 30 mins
T1 construct: made in house; host or cells: insect-baculovirus expression vector system (BEVS)
T1 sequence (P04062 40-536): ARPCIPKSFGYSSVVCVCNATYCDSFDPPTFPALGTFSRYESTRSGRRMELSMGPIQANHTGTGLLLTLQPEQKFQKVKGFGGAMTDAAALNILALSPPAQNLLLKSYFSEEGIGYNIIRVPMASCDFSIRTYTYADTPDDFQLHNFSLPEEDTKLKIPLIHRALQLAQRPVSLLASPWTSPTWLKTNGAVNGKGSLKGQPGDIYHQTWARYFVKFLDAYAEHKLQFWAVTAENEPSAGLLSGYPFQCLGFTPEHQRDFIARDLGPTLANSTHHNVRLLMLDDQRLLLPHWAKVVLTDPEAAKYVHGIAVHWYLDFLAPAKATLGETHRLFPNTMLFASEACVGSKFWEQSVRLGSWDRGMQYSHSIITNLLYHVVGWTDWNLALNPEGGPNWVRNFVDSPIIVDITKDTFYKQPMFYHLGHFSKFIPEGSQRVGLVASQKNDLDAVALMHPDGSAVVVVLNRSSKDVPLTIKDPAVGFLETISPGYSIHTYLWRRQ
Description: Maximum‐likelihood/σA weighted (2Fo–Fc) electron density map contoured to 1.0 σ (a=1.31 e^−/Å^3). […] Fluorescently labelled rhGBA visualized by Cy5 fluorescent readout. D=denatured protein sample.
rhGBA produced in BEVS[58] was prepared at 500, 250, 100, 50, 10, 1, 0.1 and 0.01 nM in 150 mM McIlvaine buffer pH 5.2 (supplemented with 0.1 % (v/v) Triton X‐100 and 0.2 % (w/v) sodium taurocholate). […] The samples were denatured with Laemmli (x3) sample buffer by heating at 95 °C for 5 minutes and resolved by electrophoresis in 10 % SDS‐PAGE gels, running at 200 V for ∼50 minutes. Wet slab gels were scanned on fluorescence using an Amersham Typhoon 5 Imager (GE Healthcare) with λEX 635 nm; λEM >665 nm.

[1] = target: T2, GBA in mouse brain lysate (Mus musculus, UniProt P17439); assay: Fluorescent labeling of mouse brain lysate, GBA; details: 37 °C
T2 construct: from tissue; host or cells: mouse brain
T2 sequence (P17439 20-515): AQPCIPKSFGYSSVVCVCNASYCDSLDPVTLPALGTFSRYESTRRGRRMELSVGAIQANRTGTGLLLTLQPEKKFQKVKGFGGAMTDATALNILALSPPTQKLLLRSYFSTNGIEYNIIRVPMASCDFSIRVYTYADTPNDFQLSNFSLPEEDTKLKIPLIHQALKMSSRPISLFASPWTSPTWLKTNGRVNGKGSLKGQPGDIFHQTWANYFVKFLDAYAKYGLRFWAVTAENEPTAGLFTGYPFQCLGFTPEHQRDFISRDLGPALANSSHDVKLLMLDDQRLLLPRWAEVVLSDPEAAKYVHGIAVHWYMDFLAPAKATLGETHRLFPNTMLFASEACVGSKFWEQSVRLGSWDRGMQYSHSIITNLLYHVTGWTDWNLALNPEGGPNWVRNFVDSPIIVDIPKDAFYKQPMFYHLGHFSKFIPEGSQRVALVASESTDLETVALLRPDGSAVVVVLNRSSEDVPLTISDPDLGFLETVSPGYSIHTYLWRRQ
Description: (§1) We next investigated their labeling efficiency and selectivity toward GBA in mouse brain lysate at pH 5.2 (containing 0.2 % taurocholate and 0.1 % Triton‐100) and pH 5.8 as respective optimal conditions for GBA and GBA2 activities (Figure 7). […] Importantly, no labelling of GBA2 was observed up to 1000 nM, showing good GBA selectivity.
(§2) Labeling by broad‐spectrum β‐glucosidase ABP 8 is shown for comparison (100 nM, pH 5.2 or pH 5.8, 30 min, 37 °C).
(§3) Fluorescent labeling with broad‐spectrum ABP 8 was performed at 100 nM ABP concentration at 37 °C for 30 min at pH 5.2 (with 0.1 % (v/v) Triton X‐100 and 0.2 % (w/v) sodium taurocholate) or pH 5.8 respectively. Samples were then denatured with 4 μL Laemmli (5x) sample buffer and heated at 98 °C for 5 minutes. Proteins were resolved by electrophoresis in 10 % SDS‐PAGE gels, running at a constant of 90 V for 30 minutes followed by 120 V for approximately 60 minutes. Wet slab gels were scanned on fluorescence using a Typhoon FLA9500 Imager (GE Healthcare) using λEX 635 nm; λEM >665 nm and images were processed using ImageLab 5.2.1 (BioRad).

[2] = target: T3, GBA2 in mouse brain lysate (Mus musculus, UniProt Q69ZF3); assay: Fluorescent labeling of mouse brain lysate, GBA2; details: 30 min, 37 °C
T3 construct: from tissue; host or cells: mouse brain
T3 sequence (Q69ZF3 1-918): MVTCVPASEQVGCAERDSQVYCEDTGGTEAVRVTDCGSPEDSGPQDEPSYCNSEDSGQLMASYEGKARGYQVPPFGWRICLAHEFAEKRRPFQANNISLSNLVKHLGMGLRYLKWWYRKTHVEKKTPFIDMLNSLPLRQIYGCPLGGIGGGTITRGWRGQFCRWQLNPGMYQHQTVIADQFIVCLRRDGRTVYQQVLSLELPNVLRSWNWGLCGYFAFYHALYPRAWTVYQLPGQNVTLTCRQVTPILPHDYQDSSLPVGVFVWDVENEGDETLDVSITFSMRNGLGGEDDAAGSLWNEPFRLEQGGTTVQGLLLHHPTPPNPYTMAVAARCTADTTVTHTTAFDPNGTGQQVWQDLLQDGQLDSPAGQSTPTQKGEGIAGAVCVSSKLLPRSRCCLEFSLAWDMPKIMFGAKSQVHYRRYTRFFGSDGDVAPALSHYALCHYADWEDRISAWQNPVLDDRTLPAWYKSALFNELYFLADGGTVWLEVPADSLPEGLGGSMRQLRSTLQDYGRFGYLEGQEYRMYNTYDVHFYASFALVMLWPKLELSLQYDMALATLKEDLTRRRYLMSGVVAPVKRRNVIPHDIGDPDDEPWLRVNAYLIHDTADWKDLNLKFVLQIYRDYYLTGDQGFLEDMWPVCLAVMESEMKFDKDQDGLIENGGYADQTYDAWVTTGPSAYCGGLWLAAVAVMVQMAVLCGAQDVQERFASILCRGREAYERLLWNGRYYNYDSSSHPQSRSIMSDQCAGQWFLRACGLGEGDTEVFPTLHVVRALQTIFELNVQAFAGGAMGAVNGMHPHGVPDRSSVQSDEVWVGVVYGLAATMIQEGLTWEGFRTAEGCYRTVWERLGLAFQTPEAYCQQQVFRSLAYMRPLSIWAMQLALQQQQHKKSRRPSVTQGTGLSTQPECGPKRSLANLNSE
Description: as §1, §2, §3

Question: Which “lowest rhGBA concentration labelled” value (rhGBA) does the source give for `CCCCCCCCN1[C@@H]2[C@H](Cn3cc(CNC(=O)CCCCC[N+]4=C(/C=C/C=C/C=C5/N(C)c6ccccc6C5(C)C)C(C)(C)c5ccccc54)nn3)[C@@H](O)[C@H](O)[C@@H](O)[C@@H]21` (stereo partly shown) [ABP 6] here?
Answer: Its value is 1 nM.

Question: And the “ABP concentration with significant labeling of GBA” value ([1]; pH 5.2 with 0.2 % taurocholate and 0.1 % Triton, 30 min)?
Answer: Its value is 10 nM.

Question: And the “ABP concentration with significant labeling of GBA” value ([1]; pH 5.8, 30 min)?
Answer: The value was 1000 nM.

Question: And the “ABP concentration up to which no labelling of GBA2 was observed” value [2]?
Answer: The value was > 1000 nM.

From publication PMC9298352, “Design, Synthesis and Structural Analysis of Glucocerebrosidase Imaging Agents” (Chemistry (Weinheim an Der Bergstrasse, Germany), 2021)
